Assay [1] concerns harmful plants such as Alopecurus myosuroides, Echinochloa crus galli, Setaria viridis and Veronica persica. The assay is described as follows: Pre-emergence herbicidal effect (greenhouse pot test, visual scoring). It counts as in vivo. As to conditions: pre-emergence method, application rate of 0.32 kg of active substance per hectare, scored visually after about 3 weeks. From the text:
1. Pre-emergence Herbicidal Effect and Crop Plant Compatibility
Seeds of monocotyledonous or dicotyledonous weeds or crop plants are placed in sandy loam soil in wood-fiber pots and covered with soil. The compounds (I) according to the invention, formulated in the form of wettable powders (WP), are then applied to the surface of the soil cover in the form of an aqueous suspension or emulsion at a water application rate of 600 I/ha (converted), with addition of 0.2% wetting agent.
Following the treatment, the pots are placed in the greenhouse and kept under good growth conditions for the test plants. After about 3 weeks, the activity of the preparations is scored visually in comparison to untreated controls (herbicidal activity in percent (%): 100% activity=the plants have died, 0% activity=like control plants).

For assay [2], the system named is harmful plants such as Avena fatua, Echinochloa crus galli, Lolium multiflorum, Setaria viridis, Veronica persica, Viola tricolor and Alopecurus myosuroides. Description: Post-emergence herbicidal effect (greenhouse pot test, visual scoring). It counts as in vivo. Particulars: post-emergence method, application rate of 0.32 kg or less of active substance per hectare, scored visually after about 3 weeks. The protocol: 2. Post-emergence Herbicidal Effect and Crop Plant Compatibility
Seeds of monocotyledonous and dicotyledonous weeds and crop plants are placed in sandy loam soil in wood-fiber pots, covered with soil, and cultivated in a greenhouse under good growth conditions. 2 to 3 weeks after sowing, the test plants are treated at the one-leaf stage. The compounds (I) according to the invention, formulated as wettable powders (WP), are then sprayed onto the green parts of the plants as an aqueous suspension or emulsion at a water application rate of 600 I/ha (converted), with addition of 0.2% wetting agent. The test plants are allowed to stand in a greenhouse for about 3 weeks under optimum growth conditions, and the effect of the preparations is then scored visually by comparison with untreated controls (herbicidal activity in percent (%): 100% activity=the plants have died, 0% activity=like control plants).

Drawing on patent US8298994B2, “Substituted 1-(diazinyl)pyrazol-4-ylacetic acids, processes for their preparation and their use as herbicides and plant growth regulators” (Bayer Cropscience AG, priority 2008, dated 2012), this text covers herbicidal activity for 39 compounds.

Regarding `CC#CCOC(=O)Cc1c(C)nn(-c2cncnc2)c1-c1ccc(Cl)cc1` [Compound 3-161], the herbicidal activity entry in assay [1] and in assay [2] was “good herbicidal activity” in each case.

For `COC(=O)Cc1c(C)nn(-c2cncnc2)c1-c1ccccc1` [Compound 2-2], the herbicidal activity result in assay [1] and in assay [2] was “good herbicidal activity” throughout. With `Cc1nn(-c2cncnc2)c(-c2ccc(Cl)cn2)c1CC(=O)O` [Compound 1-116], the herbicidal activity result in assay [1] and in assay [2] was “good herbicidal activity” throughout. As for `CCOC(=O)Cc1c(C)nn(-c2cncnc2)c1-c1ccc(Cl)cc1` [Compound 3-4], the herbicidal activity entry in assay [1] and in assay [2] was “good herbicidal activity” each time. For `Cc1cc(C)nc(-c2c(CC(=O)O)c(C)nn2-c2cncnc2)c1` [Compound 1-210], the herbicidal activity entry in assay [1] and in assay [2] was “good herbicidal activity” in each case.

As to `COC(=O)Cc1c(C)nn(-c2cncnc2)c1-c1ccc(Cl)c(C)c1` [Compound 2-135], the herbicidal activity result in assay [1] and in assay [2] was “good herbicidal activity” each time.

Turning to `COC(=O)Cc1c(C)nn(-c2cncnc2)c1-c1cc2ccccc2cn1` [Compound 2-241], the herbicidal activity entry in assay [1] and in assay [2] was “good herbicidal activity” each time.

Turning to `C#CCOC(=O)Cc1c(C)nn(-c2cncnc2)c1-c1ccc(Cl)cn1` [Compound 3-112], the herbicidal activity entry in assay [1] and in assay [2] was “good herbicidal activity” each time. With `COC(=O)Cc1c(C)nn(-c2cncnc2)c1-c1ccc(Cl)cc1` [Compound 2-28], the herbicidal activity entry in assay [1] and in assay [2] was “good herbicidal activity” throughout. Consider `Cc1nn(-c2cncnc2)c(-c2ccc(Cl)cc2)c1CC(=O)OCC1CC1` [Compound 3-121], for which the herbicidal activity entry in assay [1] and in assay [2] was “good herbicidal activity” in each case. Regarding `Cc1nn(-c2cncnc2)c(-c2ccc(Cl)cn2)c1CC(=O)OCC1CC1` [Compound 3-135], the herbicidal activity entry in assay [1] and in assay [2] was “good herbicidal activity” throughout.

As for `Cc1nn(-c2cncnc2)c(-c2ccc(Br)cn2)c1CC(=O)O` [Compound 1-119], the herbicidal activity result in assay [1] and in assay [2] was “good herbicidal activity” throughout.

With `COC(=O)Cc1c(C)nn(-c2cncnc2)c1-c1nc2ccccc2s1` [Compound 2-217], the herbicidal activity result in assay [1] and in assay [2] was “good herbicidal activity” each time. Consider `COc1ccnc(-c2c(CC(=O)O)c(C)nn2-c2cncnc2)c1` [Compound 1-154], for which the herbicidal activity entry in assay [1] and in assay [2] was “good herbicidal activity” each time.

On to `Cc1nn(-c2cncnc2)c(-c2ccc(Cl)cn2)c1CC(=O)OCC(F)F` [Compound 3-353], for which the herbicidal activity result in assay [1] and in assay [2] was “good herbicidal activity” each time. For `COC(=O)Cc1c(C)nn(-c2cncnc2)c1-c1cnc(C)cn1` [Compound 2-215], the herbicidal activity result in assay [1] and in assay [2] was “good herbicidal activity” each time. For `CC#CCOC(=O)Cc1c(C)nn(-c2cncnc2)c1-c1ccc(Br)cn1` [Compound 3-176], the herbicidal activity entry in assay [1] and in assay [2] was “good herbicidal activity” throughout.

For `Cc1cnc(-c2c(CC(=O)O)c(C)nn2-c2cncnc2)cn1` [Compound 1-214], the herbicidal activity result in assay [1] and in assay [2] was “good herbicidal activity” each time. Take `COC(=O)Cc1c(C)nn(-c2cncnc2)c1-c1ccc(Cl)s1` [Compound 2-65]: the herbicidal activity result in assay [1] and in assay [2] was “good herbicidal activity” throughout. Take `COC(=O)Cc1c(C)nn(-c2cncnc2)c1-c1ccc(F)cc1` [Compound 2-132]: the herbicidal activity entry in assay [1] and in assay [2] was “good herbicidal activity” in each case. As for `COC(=O)Cc1c(C)nn(-c2cncnc2)c1-c1ncccn1` [Compound 2-224], the herbicidal activity result in assay [1] and in assay [2] was “good herbicidal activity” in each case.

As for `COC(=O)Cc1c(C)nn(-c2cncnc2)c1-c1ccc(Br)cn1` [Compound 2-120], the herbicidal activity entry in assay [1] and in assay [2] was “good herbicidal activity” in each case.

As to `Cc1nn(-c2cncnc2)c(-c2ccc(Cl)cc2)c1CC(=O)O` [Compound 1-28], the herbicidal activity entry in assay [1] and in assay [2] was “good herbicidal activity” throughout. `COC(=O)Cc1c(C)nn(-c2cncnc2)c1-c1cc(C)cc(C)c1` [Compound 2-47]: the herbicidal activity entry in assay [1] and in assay [2] was “good herbicidal activity” in each case. `Cc1nn(-c2cncnc2)c(-c2ccc(Br)cn2)c1CC(=O)OCC1CC1` [Compound 3-136]: in assay [2], the herbicidal activity result is reported as “good herbicidal activity”. As for `C=CCc1ccc(-c2c(CC(=O)OC)c(C)nn2-c2cncnc2)nc1` [Compound 2-249], the herbicidal activity entry in assay [1] and in assay [2] was “good herbicidal activity” throughout. For the compound `COC(=O)Cc1c(C)nn(-c2cncnc2)c1-c1ccc(Br)cc1` [Compound 2-240], the herbicidal activity entry in assay [1] and in assay [2] was “good herbicidal activity” throughout.

For `CCOC(=O)Cc1c(C)nn(-c2cncnc2)c1-c1ccc(Br)cn1` [Compound 3-26], the herbicidal activity entry in assay [1] and in assay [2] was “good herbicidal activity” in each case. On to `Cc1nn(-c2cncnc2)c(-c2cc3ccccc3cn2)c1CC(=O)O` [Compound 1-236], for which the herbicidal activity entry in assay [1] and in assay [2] was “good herbicidal activity” in each case. As to `COC(=O)Cc1c(C)nn(-c2cncnc2)c1-c1cc(C)ccn1` [Compound 2-148], the herbicidal activity entry in assay [1] and in assay [2] was “good herbicidal activity” throughout. With `COC(=O)Cc1c(C)nn(-c2cncnc2)c1-c1cc(OC)ccn1` [Compound 2-155], the herbicidal activity result in assay [1] and in assay [2] was “good herbicidal activity” each time. `CCOC(=O)Cc1c(C)nn(-c2cncnc2)c1-c1ccc(Cl)cn1` [Compound 3-25]: the herbicidal activity entry in assay [1] and in assay [2] was “good herbicidal activity” in each case. In the case of `COC(=O)Cc1c(C)nn(-c2cncnc2)c1-c1ccc(C)cc1` [Compound 2-16], the herbicidal activity result in assay [1] and in assay [2] was “good herbicidal activity” throughout. As for `COC(=O)Cc1c(C)nn(-c2cncnc2)c1-c1ccccn1` [Compound 2-116, Methyl[3-methyl-5-(pyridin-2-yl)-1-(pyrimidin-5-yl)-1H-pyrazol-4-yl]acetate], the herbicidal activity entry in assay [1] and in assay [2] was “good herbicidal activity” throughout. Consider `COC(=O)Cc1c(C)nn(-c2cncnc2)c1-c1ccc([N+](=O)[O-])cc1` [Compound 2-243], for which the herbicidal activity result in assay [1] and in assay [2] was “good herbicidal activity” each time.

Turning to `COC(=O)Cc1c(C)nn(-c2cncnc2)c1-c1ccc(Cl)cn1` [Compound 2-117], the herbicidal activity result in assay [1] and in assay [2] was “good herbicidal activity” each time. Regarding `COC(=O)Cc1c(C)nn(-c2cncnc2)c1-c1ccc(C)cn1` [Compound 2-124], the herbicidal activity entry in assay [1] and in assay [2] was “good herbicidal activity” in each case. In the case of `COC(=O)Cc1c(C)nn(-c2cncnc2)c1-c1cc(C)cs1` [Compound 2-64], the herbicidal activity entry in assay [1] and in assay [2] was “good herbicidal activity” each time.

Regarding `CCOC(=O)Cc1c(C)nn(-c2cncnc2)c1-c1cc(C)ccn1` [Compound 3-36], in assay [1], the herbicidal activity entry is reported as “good herbicidal activity”.
